According to article PMC12486854, “Targeting mycobacterial transpeptidases: evaluating the roles of Ldt and PBP inhibition in suppressing Mycobacterium smegmatis” (Antimicrobial Agents and Chemotherapy, 2025):
Like-named read-outs stand apart in the source and are kept apart here.

Assays:
[1] = tested on: Mycobacterium smegmatis (Msm); parameters: broth microdilution MIC, resazurin read-out, 4 days at 37 C; settings: without clavulanic acid; 96 h
[2] = tested on: Mycobacterium smegmatis (Msm); experiment: microbe, parasite or virus in culture; settings: without clavulanic acid, 96 h
[3] = biological target: T1, Mtb PBP3 Δ1-122 (Mycobacterium tuberculosis, UniProt L0T911); experiment: biochemical
T1 construct: gene pbpB; N-terminally truncated (residues 1-122 removed), codon-optimised gene in pCold, E. coli BL21(DE3), His tag cleaved with 3C protease, calculated mass 60,148 Da, observed 60,152 Da
T1 sequence (L0T911 whole entry, looked up, stated change not applied, the tested form may be a part): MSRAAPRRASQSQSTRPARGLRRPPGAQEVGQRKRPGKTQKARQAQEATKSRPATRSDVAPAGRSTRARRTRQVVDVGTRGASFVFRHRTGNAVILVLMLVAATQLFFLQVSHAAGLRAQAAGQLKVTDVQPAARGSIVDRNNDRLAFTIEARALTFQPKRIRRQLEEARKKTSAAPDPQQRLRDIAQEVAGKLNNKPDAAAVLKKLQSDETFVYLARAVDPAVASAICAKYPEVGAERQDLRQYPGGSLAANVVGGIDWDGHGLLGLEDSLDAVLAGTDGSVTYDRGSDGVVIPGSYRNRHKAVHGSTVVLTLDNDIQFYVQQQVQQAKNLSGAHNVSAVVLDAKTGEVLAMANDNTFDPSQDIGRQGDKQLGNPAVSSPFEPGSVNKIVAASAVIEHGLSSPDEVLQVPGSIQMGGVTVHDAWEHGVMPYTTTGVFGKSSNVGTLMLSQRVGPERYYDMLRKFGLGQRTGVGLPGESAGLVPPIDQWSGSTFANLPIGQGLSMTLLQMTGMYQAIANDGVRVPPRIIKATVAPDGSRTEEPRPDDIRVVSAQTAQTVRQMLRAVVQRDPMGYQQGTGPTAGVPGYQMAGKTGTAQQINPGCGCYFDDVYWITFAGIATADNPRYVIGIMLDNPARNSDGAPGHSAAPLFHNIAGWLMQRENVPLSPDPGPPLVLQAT

[4] = biological target: T1, Mtb PBP3 Δ1-122; experiment: biochemical; format: biochemical
[5] = biological target: T2, LdtMt2 (Mycobacterium tuberculosis, UniProt I6Y9J2); experiment: biochemical
T2 construct: gene ldtB
T2 sequence (I6Y9J2 35-408): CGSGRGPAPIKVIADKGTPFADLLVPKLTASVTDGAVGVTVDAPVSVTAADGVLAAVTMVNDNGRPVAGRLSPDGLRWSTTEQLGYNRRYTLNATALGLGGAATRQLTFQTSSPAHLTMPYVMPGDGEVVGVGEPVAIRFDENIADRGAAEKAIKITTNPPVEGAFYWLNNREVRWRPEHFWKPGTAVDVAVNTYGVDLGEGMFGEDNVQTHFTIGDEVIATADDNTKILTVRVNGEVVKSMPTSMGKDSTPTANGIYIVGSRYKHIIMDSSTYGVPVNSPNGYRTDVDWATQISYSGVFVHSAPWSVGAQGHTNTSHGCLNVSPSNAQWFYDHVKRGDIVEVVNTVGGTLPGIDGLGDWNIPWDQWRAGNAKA

[6] = biological target: T2, LdtMt2; experiment: biochemical; remark: listed apart in the source
[7] = tested on: Mycobacterium smegmatis (Msm); settings: without clavulanic acid; 96 h
[8] = 10 min pre-incubation, read-out: pIC50 LdtMt2 (converted)

In the case of CC[C@@H](CO)NCCN[C@@H](CC)CO [Ethambutol], the “MIC Msm (µg/mL), no clavulanic acid” value [1] is reported as 0.25 µg/mL.

In the case of C[C@@H](O)[C@H]1C(=O)N2C(C(=O)O)=C([C@H]3CCCO3)S[C@H]12 [compound 1, faropenem], the “MIC Msm (µg/mL), no clavulanic acid” value [2] is reported as 16 µg/mL.

In the case of C[C@@H](O)[C@H]1C(=O)N2C(C(=O)O)=C(SCCN=CN)C[C@H]12 [compound 2, imipenem], the IC50 [3] is reported as 0.501 µM and the “MIC Msm (µg/mL), no clavulanic acid” value [2] is reported as 0.125 µg/mL.

With CC(C)(O/N=C(\C(=O)N[C@@H]1C(=O)N2C(C(=O)[O-])=C(C[n+]3ccccc3)CS[C@H]12)c1csc(N)n1)C(=O)O [compound 6, ceftazidime] the “MIC Msm (µg/mL), no clavulanic acid” value [2] was over 128 µg/mL and the IC50 [4] was 3.16 µM.

CO/N=C(\C(=O)N[C@@H]1C(=O)N2C(C(=O)O)=C(CSc3nc(=O)c(=O)[nH]n3C)CS[C@H]12)c1csc(N)n1 [compound 7, ceftriaxone] was tested, and the “MIC Msm (µg/mL), no clavulanic acid” value [2] was over 128 µg/mL.

With CC1(C)S[C@@H]2[C@H](NC(=O)[C@H](N)c3ccccc3)C(=O)N2[C@H]1C(=O)O [compound 11, ampicillin] the “MIC Msm (µg/mL), no clavulanic acid” value [2] was over 128 µg/mL.

With CC1(C)S[C@@H]2[C@H](NC(=O)[C@H](N)c3ccc(O)cc3)C(=O)N2[C@H]1C(=O)O [compound 12, amoxicillin] the “MIC Msm (µg/mL), no clavulanic acid” value [2] was over 128 µg/mL.

CC1(C)S[C@@H]2[C@H](NC(=O)C(C(=O)O)c3ccccc3)C(=O)N2[C@H]1C(=O)O (stereo partly drawn) [compound 15, carbenicillin] was tested, and the IC50 [4] was 3.98 µM.

C[C@H]1[C@H](NC(=O)/C(=N\OC(C)(C)C(=O)O)c2csc(N)n2)C(=O)N1S(=O)(=O)O [compound 16, aztreonam] showed an IC50 [4] of 158 µM.

In the case of O=C(O)[C@H]1/C(=C/CO)O[C@@H]2CC(=O)N21 [compound 17, clavulanic acid], the IC50 [3] is reported as over 398 µM and the MIC ([2]; Mycolicibacterium smegmatis, read-out: MIC Msm (µg/mL), no clavulanic acid) is reported as 128 µg/mL.

In the case of CCC(C)[C@H](NC(=O)OCc1ccccc1)C(=O)CCl (stereo partly drawn) [compound 18, 18], the pIC50 [4] is reported as under 3.4.

With CCC(C)[C@H](NC(=O)OCc1ccccc1)C(=O)CCl (stereo partly drawn) [compound 18] the “MIC Msm (µg/mL), no clavulanic acid” value [2] was over 128 µg/mL.

For O=C1C=CC(=O)N1c1ccc(Oc2ccccc2)c(Cl)c1 [compound 19], the IC50 [3] was 100 µM and the “MIC Msm (µg/mL), no clavulanic acid” value [2] was 64 µg/mL.

In the case of O=C(OCN1C(=O)C=CC1=O)c1ccccc1 [compound 20], the “MIC Msm (µg/mL), no clavulanic acid” value [2] is reported as 64 µg/mL.

O=c1c2cc(Cl)c(Cl)cc2sn1CCO [compound 21, 21] was tested, and the IC50 [3] was 79.4 µM and the “MIC Msm (µg/mL), no clavulanic acid” value [2] was 32 µg/mL.

COc1ccc(CN2C(=O)C(=O)c3cc(Br)cc(C)c32)cc1OC [compound 22, 22] gave an IC50 [4] of over 398 µM.

In the case of COc1ccc(CN2C(=O)C(=O)c3cc(Br)cc(C)c32)cc1OC [compound 22], the “MIC Msm (µg/mL), no clavulanic acid” value [2] is reported as over 128 µg/mL.

O=C1C(=O)N(Cc2cccc3ccccc23)c2ccc(Br)cc21 [compound 23, 23] was tested, and the “MIC Msm (µg/mL), no clavulanic acid” value [2] was over 128 µg/mL.

NC(=O)OCC1=C(C(=O)O)N2C(=O)C(NC(=O)C(=CS(=O)(=O)CCc3ccc(O)c(O)c3)c3csc(N)n3)C2SC1 (stereo not drawn) [compound 24, 24] was tested, and the pIC50 [4] was 6.1 ± 0.089.

N#Cn1c(-c2cc(F)cc(C(F)(F)F)c2)nc2ccccc21 [compound 25, 25] was tested, and the “MIC Msm (µg/mL), no clavulanic acid” value [2] was 48 µg/mL and the IC50 [4] was over 398 µM.

For N#Cn1c(-c2ccncc2)nc2ccc(C(=O)c3ccccc3)cc21 [compound 26], the “MIC Msm (µg/mL), no clavulanic acid” value [2] was 16 µg/mL.

Work on O=C(C1OC1c1ccccc1)C1OC1c1ccccc1 (stereo not drawn) [compound 28, 28] yielded a pIC50 [4] of under 3.4.

Work on COc1cccc(NC(=O)C(Cl)=C(Cl)S(=O)(=O)Cc2ccccc2Cl)n1 [compound 29, 29] yielded a pIC50 [4] of under 3.4.

Molecule NC(=O)C=CC(=O)Nc1ccc(Cl)cc1 [compound 30, 30] has an IC50 [4] of over 398 µM.

NC(=O)C=CC(=O)Nc1ccc(Cl)cc1 [compound 30] was tested, and the “MIC Msm (µg/mL), no clavulanic acid” value [2] was over 128 µg/mL.

With O=[N+]([O-])c1ccc(S(=O)(=O)c2ccccc2)nc1 [compound 31, 31] the “MIC Msm (µg/mL), no clavulanic acid” value [2] was 8 µg/mL, the IC50 [4] was over 398 µM and the IC50 [5, 8] was 5.01 µM. For the same molecule, the kinact/KI ([6]; read-out: kinact/KI LdtMt2) was 52.6 M⁻¹ s⁻¹.

With O=[N+]([O-])c1ccc(S(=O)(=O)c2ccccc2)cn1 [compound 32, 32] the IC50 [5, 8] was 25.1 µM, the kinact/KI ([6]; read-out: kinact/KI LdtMt2) was under 10 M⁻¹ s⁻¹ and the “MIC Msm (µg/mL), no clavulanic acid” value [7] was 4 µg/mL.

Cc1ccc(S(=O)(=O)c2ccc([N+](=O)[O-])cn2)cc1 [compound 33, 33] was tested, and the kinact/KI ([6]; read-out: kinact/KI LdtMt2) was 51.9 M⁻¹ s⁻¹.

Molecule O=[N+]([O-])c1ccc(S(=O)(=O)c2ccc(Cl)cc2)nc1 [compound 34, 34] has a kinact/KI ([6]; read-out: kinact/KI LdtMt2) of 86.9 M⁻¹ s⁻¹.

With O=[N+]([O-])c1ccc(S(=O)(=O)c2ccc(Br)cc2)nc1 [compound 35, 35] the kinact/KI ([6]; read-out: kinact/KI LdtMt2) was 272 M⁻¹ s⁻¹.

For O=[N+]([O-])c1cccnc1S(=O)(=O)c1ccccc1 [compound 36, 36], the IC50 [5, 8] was 25.1 µM, the kinact/KI ([6]; read-out: kinact/KI LdtMt2) was under 10 M⁻¹ s⁻¹ and the “MIC Msm (µg/mL), no clavulanic acid” value [7] was 16 µg/mL.

O=S(=O)(c1ccccc1)c1ccccn1 [compound 37, 37] was tested, and the IC50 [5, 8] was over 39.8 µM, the kinact/KI ([6]; read-out: kinact/KI LdtMt2) was under 10 M⁻¹ s⁻¹ and the “MIC Msm (µg/mL), no clavulanic acid” value [7] was over 128 µg/mL.

O=S(=O)(c1ccccc1)c1cccnc1 [compound 38, 38] was tested, and the IC50 [5, 8] was over 39.8 µM, the kinact/KI ([6]; read-out: kinact/KI LdtMt2) was under 10 M⁻¹ s⁻¹ and the “MIC Msm (µg/mL), no clavulanic acid” value [7] was over 128 µg/mL.

For O=S(=O)(c1ccccc1)c1ccncc1 [compound 39, 39], the IC50 [5, 8] was over 39.8 µM, the kinact/KI ([6]; read-out: kinact/KI LdtMt2) was under 10 M⁻¹ s⁻¹ and the “MIC Msm (µg/mL), no clavulanic acid” value [7] was over 128 µg/mL.

For COc1ccc(S(=O)(=O)c2ccccc2)nc1 [compound 40, 40], the IC50 [5, 8] was over 39.8 µM, the kinact/KI ([6]; read-out: kinact/KI LdtMt2) was under 10 M⁻¹ s⁻¹ and the “MIC Msm (µg/mL), no clavulanic acid” value [7] was over 128 µg/mL.

For N#Cc1ccc(S(=O)(=O)c2ccccc2)nc1 [compound 41, 41], the IC50 [5, 8] was 25.1 µM, the kinact/KI ([6]; read-out: kinact/KI LdtMt2) was under 10 M⁻¹ s⁻¹ and the “MIC Msm (µg/mL), no clavulanic acid” value [7] was over 128 µg/mL.

With N#Cc1cccnc1S(=O)(=O)c1ccccc1 [compound 42, 42] the IC50 [5, 8] was over 39.8 µM, the kinact/KI ([6]; read-out: kinact/KI LdtMt2) was under 10 M⁻¹ s⁻¹ and the “MIC Msm (µg/mL), no clavulanic acid” value [7] was over 128 µg/mL.

O=[N+]([O-])c1ccc(Cl)nc1 [compound 43, 43] was tested, and the IC50 [5, 8] was over 39.8 µM, the kinact/KI ([6]; read-out: kinact/KI LdtMt2) was under 10 M⁻¹ s⁻¹ and the “MIC Msm (µg/mL), no clavulanic acid” value [7] was 32 µg/mL.

Clc1ccccn1 [compound 44, 44] was tested, and the IC50 [5] was over 39.8 µM, the kinact/KI ([6]; read-out: kinact/KI LdtMt2 (M^-1 s^-1)) was under 10 M⁻¹ s⁻¹ and the “MIC Msm (µg/mL), no clavulanic acid” value [7] was over 128 µg/mL.

Nc1ncc(S(=O)(=O)c2ccc([N+](=O)[O-])cc2)s1 [compound 45, 45] was tested, and the “MIC Msm (µg/mL), no clavulanic acid” value [7] was over 128 µg/mL.

O=[N+]([O-])c1ccc(S(=O)(=O)c2ncc(C(F)(F)F)cc2Cl)cc1 [compound 46, 46] was tested, and the IC50 [5, 8] was over 39.8 µM, the kinact/KI ([6]; read-out: kinact/KI LdtMt2) was under 10 M⁻¹ s⁻¹ and the “MIC Msm (µg/mL), no clavulanic acid” value [7] was over 128 µg/mL.

For C[C@@H](O)[C@H]1C(=O)N2C(C(=O)O)=C(S[C@@H]3CN[C@H](CNS(N)(=O)=O)C3)[C@H](C)[C@H]12 [doripenem], the “MIC Msm (µg/mL), no clavulanic acid” value [2] was 0.5 µg/mL.

With C[C@@H](O)[C@H]1C(=O)N2C(C(=O)O)=C(S[C@@H]3CN[C@H](C(=O)Nc4cccc(C(=O)O)c4)C3)[C@H](C)[C@H]12 [ertapenem] the “MIC Msm (µg/mL), no clavulanic acid” value [2] was 4 µg/mL.

C[C@@H](O)[C@H]1C(=O)N2C(C(=O)O)=C(S[C@@H]3CN[C@H](C(=O)N(C)C)C3)[C@H](C)[C@H]12 [meropenem] was tested, and the “MIC Msm (µg/mL), no clavulanic acid” value [2] was 2 µg/mL.
